Patent US20180209979A1, “METHOD FOR INDIVIDUALIZED CANCER THERAPY” (INSERM (INSTITUT NATIONAL DE LA SANTE ET DE LA RECHERCHE), priority 2015, published 2018)

How the values were obtained:
[1] = test system: CAL33 cells; test: Clonogenicity assay (clonal growth) of shC, sh1 and sh2 CAL33 cells; format: cell-based, human; details: for inhibition at 0.1 µM: Homo sapiens, CAL-33, erlotinib 0.1 μmol/L, FIG. 7
Experimental: The mean and standard deviation were calculated for three independent experiments. Statistical analysis was carried out using a t test. […] Dishes were then stained with Giemsa (Fluka) and plates were scanned in order to analyze the results by computer with ImageJ software (NIH, USA).

[2] = test system: CAL33 cells; details: read-out: IC50 of erlotinib, Quesnelle K M et al. 2012; cited from earlier work
[3] = test system: head and neck tumors; details: Agulnik M et al. 2007; cited from earlier work
[4] = test system: CAL33 cells; test: Cumulative population doublings of CAL33 cells; format: cell-based, human; details: FIG. 2B
Experimental: (§1) For cumulative population doublings assays (Nekanti U et al. Int J Biol Sci 2010; 6(5):499-512.) 10^5 cells were grown in 7.5% FCS-DMEM medium for 28 days at 37° C. and 5% CO2 in Petri boxes 100 mm diameter. Cells were counted each day (Coulter, Beckman) and media were changed every five days. Cells at each passage was calculated as a ratio of total number of cells harvested to total number of cells seeded multiplied by the total number of cells from the previous passage. Population doublings were calculated using the formula: […]
(§2) in which NI is the inoculum cell number and NH the cell harvest number.
(§3) To yield the cumulated doubling level, the population doubling for each passage was calculated and then added to the population doubling levels of the previous passages. The population doubling time was obtained by the formula: […]
(§4) In which NI is the inoculum cell number; NH is the cell harvest number and t is the time of the culture (in hours).

[5] = test system: CAL33LUC cells; test: Tumor xenograft formation, size evaluation and tumor section analysis; format: in vivo; details: 10^6 CAL33LUC cells subcutaneously in nude mice, versus shC, FIG. 5
Experimental: 10^6 cells were injected subcutaneously into the flanks of 5-week-old nude (nu/nu) female mice (Janvier). Bioluminescence was quantified using the In Vivo Imaging System (Perkin Elmer) according to the manufacturer's instructions. Tumor volume [(v ¼ L l^2 0.52] was determined in parallel using a caliper. There was a linear relationship between values for bioluminescence and the tumor volume.
Immuno-histochemical staining for TRF2 was carried out in 3 μm tissue sections from formalin-fixed, paraffin-embedded tissue blocks. Histopathological analysis was conducted in 3 μm tissue sections colored with Masson's trichrome (blue collagen) and scanned with Leica Slide Path. For each tumor, pictures were taken and the following parameters were analyzed using Leica Slide Path Gateway software: total area of the section, area of necrosis, presence of white blood cells inflammatory infiltrate, presence of red blood cells extravasation, thickness of collagen around vessels, number of vessels.

[6] = test system: CAL27 cells; test: Cumulative population doublings of CAL27 cells; format: cell-based, human; details: FIG. 3B
Experimental: as §1, §2, §3, §4

[7] = test system: CAL 33 cells; test: qPCR analysis of pro-angiogenic/pro-inflammatory genes induced by TRF2 silencing; format: cell-based, human; details: shC cells = 100
Excerpt: (§5) To further analyze the effect of TRF2 knock-down on cell proliferation, invasion capabilities and treatment response, CAL 33 cells expressing shRNA against TRF2 and dominant negative forms of TRF2 were generated (Biroccio A et al. Nat Cell Biol 2013; 15(7):818-28). CAL 33 cells were infected using lentiviral vector (pLKOpuro-3×LacO, Sigma). The plasmids contained scramble (shC; SEQ ID No1) or TRF2-specific shRNA, sh1 (SEQ ID No2) or sh2 (SEQ ID No3).

[8] = test system: TRF2; test: TRF2 knock-down tested by immunoblotting in CAL33 cells; format: cell-based, human; details: FIG. 2A
Excerpt: as §5
The following antibodies were used for Western blotting: anti-phospho ERK 1,2 (Sigma St Louis, Mo.), anti-phospho Akt, anti-Akt, anti-EGFR (Cell Signaling, Cambridge, UK,), anti-ERKs (Santa Cruz Biotechnology, Santa Cruz, Calif.)), anti-TRF2 (Novus bio, Cambridge, UK) and alpha-tubulin (Fischer scientific, Illkirch France).

Molecule	proliferation (cumulative population doublings) [4]	tumor growth / tumor size (bioluminescence) [5]	proliferation (cumulative population doublings) [6]	percentage expression of 36B4 [7] [%]	percentage expression of CXCL1 [7]	percentage expression of CXCL7 [7]	percentage expression of CXCL8 [7]	percentage expression of CXCL9 [7]	percentage expression of GAPDH [7] [%]	percentage expression of IL6 [7]	percentage expression of PDGF-BB [7]	percentage expression of RANTES [7]	percentage expression of TRF2 [7] [%]	percentage expression of m-RPLP0 [7] [%]	further results
O=c1[nH]cc(F)c(=O)[nH]1 [5 FU]	–	–	–	–	–	–	–	–	–	–	–	–	–	–	influence of TRF2 knock-down on the efficacy of the drug (clonal growth) ([1]; shC, sh1 and sh2 CAL33 cells, FIG. 6B): no influence
C#Cc1cccc(Nc2ncnc3cc(OCCOC)c(OCCOC)cc23)c1 [erlotinib]	–	–	–	–	–	–	–	–	–	–	–	–	–	–	IC50 [2]: 5.4 µM; inhibition at 0.1 µM ([1]; sh1 CAL33 cells (TRF2 knock-down)): 40%; inhibition at 0.1 µM ([1]; sh2 CAL33 cells (TRF2 knock-down)): 50%; patients with an objective response to the treatment [3]: 50%
sh1: TRF2-specific shRNA encoded by DNA of SEQ ID No2, expressed from lentiviral vector (DNA GCCAGAATATCATTAGCGTTTCTCGAGAAACGCTAATGATATTCTGGC)	does not impair CAL33 proliferation	decreases tumor growth	does not impair CAL27 proliferation	100	380(***) %	110%	350(***) %	210(**) %	100	400(***) %	150(*) %	270(***) %	70	100	–
sh2: TRF2-specific shRNA encoded by DNA of SEQ ID No3, expressed from lentiviral vector (DNA GCGCATGACAATAAGCAGATTCTCGAGAATCTGCTTATTGTCATGCGC)	does not impair CAL33 proliferation	decreases tumor growth	does not impair CAL27 proliferation	100	370(***) %	120(*) %	1100(***) %	600(***) %	100	1000(***) %	190(***) %	190(***) %	40	100	tumor growth / tumor size (bioluminescence) ([5]; listed as shTRF2 #2): smallest tumors; efficacy in knocking-down TRF2 [8]: most efficient
